The assay deals with Hep G2 hepatoma cells. The experiment in a line: Drymifolia leaf extract bioassay: cholesterol secretion by hepatoma cells (AMPLEX RED cholesterol kit). In kind it is cell-based. The following applies: for activity at 25 µg/mL: HepG2, Conc. 25 μg/ml. As to the method: To measure cholesterol secretion by hepatoma cells following treatment by drymifolia leaf extract prepared in accordance with the present invention, a bioassay was performed. Samples for the bioassay were prepared by weighing out 100 mg of the spray dried powders of drymifolia leaf extracts. A 50 mg/ml total extract of the sample was then prepared by sequential addition of DMSO:ethanol:water in a ratio of 5:3:2. For example, for 100 mg of powder, 1 ml DMSO, 0.6 ml ethanol, and 0.4 ml water would be used. To prepare dilutions of sample for testing, the samples were diluted from the stock concentration of 50 mg/ml to test concentrations (i.e. 400, 200, 100 μg/ml) in tissue culture media. For the 400 μg/ml concentration, 8 μl of stock solution added to 992 μl tissue culture media would yield 400 μg/ml. From there, serial two fold dilutions would result in the remaining test concentration. Hep G2 hepatoma cells (ATCC, Manassas, Va.) were plated at 2×10^5/well in standard 24 well tissue culture plates. Following plating, the cells were incubated overnight. The next day, the media in the wells was aspirated and replaced with fresh media containing the diluted sample. Stock solutions of the samples were prepared as total extracts at 50 mg/ml. The samples were then diluted in tissue culture media just prior to adding to the cells. The cells were again incubated overnight with the samples. Then, the supernatant fluids were tested for the presence of cholesterol using the AMPLEX RED cholesterol kit (Molecular Probes, Eugene, Oreg.). The kit measures total cholesterol in the supernatants following enzymatic conversion of any cholesterol esters to free cholesterol using cholesterol esterase. The effect of the samples is calculated by dividing the mean relative fluorescence derived from the test samples by the mean relative fluorescence of untreated controls.
LIPITOR® and pure rutin samples were prepared in the same manner as the drymifolia leaf extract in the bioassay. The drymifolia leaf extract samples performed as well as or better than LIPITOR®. […] Pure rutin in the amount equivalent to the amount found in the lots 3193, 3194, 3811, and 3831 was tested. More specifically, the amount of rutin found in the lots was 3.44 mg/g, 4.36 mg/g, 4.42 mg/g and 4.13 mg/g, respectively. At the highest concentration of the drymifolia leaf extract samples tested (which was 400 ug/ml), there could be up to 25 ug/ml of rutin. Thus, the amount of pure rutin used in the bioassay was 3.125 to 25 ug/ml. […]

[1] abbreviates: Homo sapiens, read-out: % ctrl (cholesterol release).

As to `C[C@@H]1O[C@@H](OC[C@H]2O[C@@H](Oc3c(-c4ccc(O)c(O)c4)oc4cc(O)cc(O)c4c3=O)[C@H](O)[C@@H](O)[C@@H]2O)[C@H](O)[C@H](O)[C@H]1O` [Pure Rutin, rutin], the “Mean (relative fluorescence, cholesterol release)” value by setting is: (Conc. 3.125 μg/ml) 18609.5; (Conc. 6.25 μg/ml) 19069; (Conc. 12.5 μg/ml) 17835; (Conc. 25 μg/ml) 16817.5. Also, the activity at 3.125 µg/mL (Homo sapiens, HepG2, Conc. 3.125 μg/ml, read-out: % ctrl (cholesterol release)) is 101%. The activity at 6.25 µg/mL (Homo sapiens, HepG2, Conc. 6.25 μg/ml, read-out: % ctrl (cholesterol release)) was 103%. For the same molecule, under “Homo sapiens, HepG2, Conc. 12.5 μg/ml, read-out: % ctrl (cholesterol release)”, the activity at 12.5 µg/mL came out at 96.7%. Moreover, the activity at 25 µg/mL under setting [1] worked out at 91.2%.
As for `CC(C)c1c(C(=O)Nc2ccccc2)c(-c2ccccc2)c(-c2ccc(F)cc2)n1CC[C@@H](O)C[C@@H](O)CC(=O)O` [LIPITOR ®, atorvastatin], the “Mean (relative fluorescence, cholesterol release)” value by setting is: (Conc. 25 μg/ml) 18308.5; (Conc. 50 μg/ml) 18591; (Conc. 100 μg/ml) 16871.5; (Conc. 200 μg/ml) 16378. Besides, under setting [1], the activity at 25 µg/mL was determined as 99.2%. For the same molecule, the activity at 50 µg/mL (Homo sapiens, HepG2, Conc. 50 μg/ml, read-out: % ctrl (cholesterol release)) was 101%. Further, the activity at 100 µg/mL (Homo sapiens, HepG2, Conc. 100 μg/ml, read-out: % ctrl (cholesterol release)) worked out at 91.5%. The activity at 200 µg/mL (Homo sapiens, HepG2, Conc. 200 μg/ml, read-out: % ctrl (cholesterol release)) came out at 88.8%.
